Read-outs that look alike come from different tables or passages of the source.
Tests used:
Type in all cases: cell-based
[1] = system: SR; experiment: Human tumor cell line growth assay (SRB); settings: Homo sapiens, Leukemia, 48 h
[2] = Human tumor cell line growth assay (SRB); settings: human, SR cells (leukemia), read-out: LC50
[3] = Human tumor cell line growth assay (SRB); settings: human, HT29 cells (colon), HT29, 48 h, read-out: LC50
[4] = system: U251; experiment: Human tumor cell line growth assay (SRB); settings: Homo sapiens, U-251; CNS, U251, 48 h
[5] = Human tumor cell line growth assay (SRB); settings: human, U251 cells (CNS), U251, 48 h, read-out: LC50
[6] = system: HOP-92; experiment: Human tumor cell line growth assay (SRB); settings: Homo sapiens; NSCLC, HOP-92, 48 h
[7] = Human tumor cell line growth assay (SRB); settings: human, HOP-92 cells (NSCLC), HOP-92, 48 h
[8] = system: Human tumor cell lines; experiment: Human tumor cell line growth assay (SRB), summary over the panel; settings: overall over the panel
[9] = system: MDA-MB-231/ATCC; experiment: Human tumor cell line growth assay (SRB); settings: Breast, 48 h; for CC50: read-out: LC50 (the source's name)
[10] = system: T-47D; experiment: Human tumor cell line growth assay (SRB); settings: T47D, Breast, 48 h; for CC50: read-out: LC50 (the source's name)
[11] = system: SK-MEL-5; experiment: Human tumor cell line growth assay (SRB); settings: Homo sapiens; Melanoma, SK-MEL-5, 48 h
[12] = Human tumor cell line growth assay (SRB); settings: human, SK-MEL-5 cells (melanoma), SK-MEL-5, 48 h
[13] = system: HCT-116; experiment: Human tumor cell line growth assay (SRB); settings: Homo sapiens; Colon, HCT-116, 48 h
[14] = Human tumor cell line growth assay (SRB); settings: human, HCT-116 cells (colon), HCT-116, 48 h, read-out: LC50
[15] = system: HCC-2998; experiment: Human tumor cell line growth assay (SRB); settings: Homo sapiens; Colon, HCC-2998, 48 h
[16] = Human tumor cell line growth assay (SRB); settings: human, HCC-2998 cells (colon), HCC-2998, 48 h, read-out: LC50
[17] = system: COLO 205; experiment: Human tumor cell line growth assay (SRB); settings: Homo sapiens; Colon, COLO 205, 48 h
[18] = Human tumor cell line growth assay (SRB); settings: human, COLO 205 cells (colon), COLO 205, 48 h, read-out: LC50
[19] = system: MDA-MB-468; experiment: Human tumor cell line growth assay (SRB); settings: Breast, MDA-MB-468, 48 h; for CC50: read-out: LC50 (the source's name)
[20] = system: MOLT-4; experiment: Human tumor cell line growth assay (SRB); settings: Homo sapiens; Leukemia, MOLT-4, 48 h
[21] = Human tumor cell line growth assay (SRB); settings: human, MOLT-4 cells (leukemia), MOLT-4, 48 h, read-out: LC50
[22] = system: NCI-H322M; experiment: Human tumor cell line growth assay (SRB); settings: Homo sapiens, NSCLC, 48 h
[23] = Human tumor cell line growth assay (SRB); settings: human, NCI-H322M cells (NSCLC), read-out: LC50
[24] = system: NCI-H23; experiment: Human tumor cell line growth assay (SRB); settings: Homo sapiens; NSCLC, NCI-H23, 48 h
[25] = Human tumor cell line growth assay (SRB); settings: human, NCI-H23 cells (NSCLC), NCI-H23, 48 h, read-out: LC50
[26] = system: OVCAR-5; experiment: Human tumor cell line growth assay (SRB); settings: Homo sapiens; Ovarian, OVCAR-5, 48 h
[27] = Human tumor cell line growth assay (SRB); settings: human, OVCAR-5 cells (ovarian), OVCAR-5, 48 h, read-out: LC50
[28] = system: NCI/ADR-RES; experiment: Human tumor cell line growth assay (SRB); settings: Ovarian, 48 h; for CC50: read-out: LC50 (the source's name)
[29] = system: HS 578T; experiment: Human tumor cell line growth assay (SRB); settings: Breast, 48 h; for CC50: read-out: LC50 (the source's name)
[30] = system: A549/ATCC; experiment: Human tumor cell line growth assay (SRB); settings: Homo sapiens, NSCLC, 48 h
[31] = Human tumor cell line growth assay (SRB); settings: human, A549/ATCC cells (NSCLC), read-out: LC50
[32] = system: OVCAR-3; experiment: Human tumor cell line growth assay (SRB); settings: Homo sapiens; Ovarian, OVCAR-3, 48 h
[33] = Human tumor cell line growth assay (SRB); settings: human, OVCAR-3 cells (ovarian), OVCAR-3, 48 h, read-out: LC50
[34] = system: HL-60(TB); experiment: Human tumor cell line growth assay (SRB); settings: Leukemia, 48 h; for CC50: read-out: LC50 (the source's name)
[35] = system: A498; experiment: Human tumor cell line growth assay (SRB); settings: Renal, A498, 48 h; for CC50: read-out: LC50 (the source's name)
[36] = system: TK-10; experiment: Human tumor cell line growth assay (SRB); settings: Renal, TK-10, 48 h; for CC50: read-out: LC50 (the source's name)
[37] = system: 786-0; experiment: Human tumor cell line growth assay (SRB); settings: Renal, 786-0, 48 h

Cc1cc2nc3c4cc([N+](=O)[O-])ccc4n(CCN(C)C)c3nc2cc1C [JBA-185, 2-(2,3-dimethyl-9-nitro-6H-indolo[2,3-b]quinoxalin-6-yl)-N,N-dimethylethanamine]
GI50 [1]: 250 nM
CC50 at 48 h [2]: > 100000 nM
CC50 at 48 h [3]: > 100000 nM
GI50 [4]: 470 nM
CC50 at 48 h [5]: > 100000 nM
GI50 [6]: 642 nM
LC50 at 48 h [7]: > 100000 nM
cytotoxicity, comparison in words [8]: less cytotoxic than B220
growth inhibition (GI50), comparison in words [8]: lower GI50 compared to B220
GI50 [9]: 495 nM
CC50 [9]: > 100000 nM
GI50 [10]: 499 nM
CC50 [10]: > 100000 nM
GI50 [11]: 1040 nM
LC50 (concentration killing 50% of tumour cells) at 48 h [12]: 4770 nM
GI50 [13]: 355 nM
CC50 at 48 h [14]: 94200 nM
GI50 [15]: 756 nM
CC50 at 48 h [16]: 6530 nM
GI50 [17]: 360 nM
CC50 at 48 h [18]: > 100000 nM
GI50 [19]: 374 nM
CC50 [19]: 5300 nM
GI50 [20]: 368 nM
CC50 at 48 h [21]: > 100000 nM
GI50 [22]: 467 nM
CC50 at 48 h [23]: > 100000 nM
GI50 [24]: 492 nM
CC50 at 48 h [25]: 22600 nM
GI50 [26]: 587 nM
CC50 at 48 h [27]: > 100000 nM
GI50 [28]: 415 nM
CC50 [28]: > 100000 nM
GI50 [29]: 1570 nM
CC50 [29]: > 100000 nM
GI50 [30]: 387 nM
CC50 at 48 h [31]: 94400 nM
GI50 [32]: 590 nM
CC50 at 48 h [33]: > 100000 nM
GI50 [34]: 914 nM
CC50 [34]: > 100000 nM
GI50 [35]: 1260 nM
CC50 [35]: 5500 nM
GI50 [36]: 371 nM
CC50 [36]: > 100000 nM
GI50 [37]: 757 nM
LC50 [37]: 9560 nM

Cc1cc2nc3c4cc(N)ccc4n(CCN(C)C)c3nc2cc1C [JBD-136, 6-(2-(dimethylamino)ethyl)-2,3-dimethyl-6H-indolo [2,3-b]quinoxalin-9-amine]
GI50 [1]: 239 nM
CC50 at 48 h [2]: > 100000 nM
CC50 at 48 h [3]: > 100000 nM
GI50 [4]: 640 nM
CC50 at 48 h [5]: 54200 nM
GI50 [6]: 912 nM
LC50 at 48 h [7]: > 100000 nM
growth inhibition (GI50), comparison in words [8]: slightly improved growth inhibition and cytotoxicity compared to B220
GI50 [9]: 1220 nM
CC50 [9]: 57500 nM
GI50 [10]: 2260 nM
CC50 [10]: > 100000 nM
GI50 [11]: 1690 nM
LC50 (concentration killing 50% of tumour cells) at 48 h [12]: 5720 nM
GI50 [13]: 369 nM
CC50 at 48 h [14]: 51400 nM
GI50 [15]: 1020 nM
CC50 at 48 h [16]: 21900 nM
GI50 [17]: 418 nM
CC50 at 48 h [18]: 83600 nM
GI50 [19]: 1030 nM
CC50 [19]: 8280 nM
GI50 [20]: 366 nM
CC50 at 48 h [21]: 71900 nM
GI50 [22]: 771 nM
CC50 at 48 h [23]: > 100000 nM
GI50 [24]: 1080 nM
CC50 at 48 h [25]: 33000 nM
GI50 [26]: 1240 nM
CC50 at 48 h [27]: > 100000 nM
GI50 [28]: 506 nM
CC50 [28]: > 100000 nM
GI50 [29]: 2120 nM
CC50 [29]: > 100000 nM
GI50 [30]: 464 nM
CC50 at 48 h [31]: > 100000 nM
GI50 [32]: 1560 nM
CC50 at 48 h [33]: 75800 nM
GI50 [34]: 1210 nM
CC50 [34]: 21900 nM
GI50 [35]: 1070 nM
CC50 [35]: 5860 nM
GI50 [36]: 2260 nM
CC50 [36]: > 100000 nM
GI50 [37]: 1520 nM
LC50 [37]: 38500 nM

Source: patent US20230312578A1, “6H-INDOLO[2,3-B]QUINOXALINE DERIVATIVES USEFUL IN THERAPY” (Vironova Medical AB, priority 2020, published 2023)
